Results as given in patent US20220323795A1, “COMBINATION OF CICLOPIROXOLAMINE AND PIROCTONE OLAMINE FOR COMBATING DANDRUFF” (PIERRE FABRE DERMO-COSMETIQUE, priority 2019, published 2022).
Read-outs that look alike come from different tables or passages of the source.

How the values were obtained:
M. globosa (IP2387.96) [1] = assay: Minimum inhibitory concentration (MIC) by micromethod in liquid medium; format: cell-based, Malassezia globosa; conditions: product alone
Method: (§1) The strains originate from the collection of the Institut Pasteur (Fungi collection, Paris France) for M. globosa (IP2387.96) and from the collection of CBS-KNAW for M. restricta (CBS7877). These strains represent and correspond to the majority of strains involved in dandruff. The strains are incubated for 5 days at 30° C. on modified Dixon agar under aerobic conditions. The inoculation suspensions are prepared in sterile distilled water and are concentrated to 10^7 CFU/ml. The determination of the minimum inhibitory concentration (MIC) is performed by micromethod in a liquid medium. 100 μl of liquid culture medium is deposited in each well of a sterile 96-well microplate. 100 μl of the solutions to be tested is deposited in the first well of a line of the plate. Dilutions by a factor of 2 are then carried out for wells 1 to 10. The test suspensions of each microorganism are prepared immediately before use in Tryptone salt. 100 μl is deposited in each well of a second microplate, with the exception of column 11. All of the first plate is inoculated using a Denley multipoint inoculate, from the second microplate. After incubation, the MIC are defined as the largest dilution with the absence of visible growth. Columns 11 and 12 serve respectively as a negative and positive control for growth.
(§2) The products tested are: • ciclopiroxolamine, at 3% (wt/wt) with sterile distilled water, • piroctone olamine at 0.3% (wt/wt) with 10% ethanol, • ketoconazole (positive control) at 1000 μg/ml (wt/wt) with 10% DMSO, • piroctone olamine/ciclopiroxolamine combinations, with respective concentrations of 0.15% and 0.75%.
(§3) The solutions are prepared at the time of the test and used immediately. An ethanol control was produced, solution at 10%.
(§4) The synergistic effect of two products is determined by calculating the synergy index (FIC, Fractional Inhibitory Concentration).
(§5) FIC Index=(MIC product A combined)/(MIC product alone)+(MIC product B combined)/(MIC product B alone).
(§6) The maximum test concentration corresponds to the concentration of the parent solution/2.

M. globosa (IP2387.96) [2] = assay: Minimum fungicide concentration (MFC) by subculturing the MIC microplates on agar medium; format: cell-based, Malassezia globosa; conditions: product alone
Method: as §1, §2
(§7) The determination of the minimum fungicide concentrations (MFC) is carried out by subculturing the MIC microplates on agar medium, using the Denley multipoint inoculator. After incubation, the MFC are defined as the largest dilution with the absence of visible growth. All the tests were carried out in duplicate.

M. restricta (CBS7877) [3] = assay: Minimum inhibitory concentration (MIC) by micromethod in liquid medium; format: cell-based, Malassezia restricta
Method: as §1, §2, §3, §4, §5, §6

M. restricta (CBS7877) [4] = assay: Minimum fungicide concentration (MFC) by subculturing the MIC microplates on agar medium; format: cell-based, Malassezia restricta
Method: as §1, §2, §7

Malassezia globosa = assay: Fungicidal activity, log reduction of colonies after contact time; format: cell-based; conditions: PO 0.3%, CPO 1.5%, ketoconazole 2%, PO/CPO 0.3%/1.5%, 10^7 CFU/ml
Method: (§8) The products to be tested alone and combined at the defined concentrations are placed in contact with a suspension of Malassezia containing 10^7 CFU/ml for a contact time of 5 minutes, 15 minutes and 30 minutes. After each contact time, a sample is taken, then diluted and filtered on a cellulose membrane. Each membrane is then deposited on the agar medium (Dixon) and incubated at 30° C. After incubation, the colonies are counted.
(§9) The products tested are: • ciclopiroxolamine, at 1.5% (wt/wt) diluted with sterile distilled water, • piroctone olamine at 0.3% (wt/wt) dissolved in ethanol, then addition of water for injectable preparations (final ethanol concentration of 9%), • ketoconazole (positive control) at 2% (wt/wt) dissolved in DMSO, then addition of water for injectable preparations (final concentration of DMSO 9%). • piroctone olamine/ciclopiroxolamine combinations, with respective concentrations of 0.3% and 1.5%.
(§10) The solutions are prepared at the time of the test and used immediately.

Malassezia restricta = assay: as above; format: cell-based; conditions: PO 0.3%, CPO 1.5%, ketoconazole 2%, PO/CPO 0.3%/1.5%, 10^7 CFU/ml
Method: as §8, §9, §10

[5] = Malassezia globosa, read-out: MIC
[6] = Malassezia globosa, read-out: MFC
[7] = Malassezia restricta, CBS7877, product alone, read-out: MIC
[8] = Malassezia restricta, CBS7877, product alone, read-out: MFC

Cc1cc(CC(C)CC(C)(C)C)n(O)c(=O)c1.NCCO (centres unmarked) [PO, piroctone olamine]
MIC (M. globosa (IP2387.96) [1]): 23 µg/mL | MIC (M. globosa (IP2387.96) [1]; % (wt/wt)): 2.3 × 10^−3% | MFC (M. globosa (IP2387.96) [2]): 23 µg/mL | MFC (M. globosa (IP2387.96) [2]; % (wt/wt)): 2.3 × 10^−3% | MIC (M. restricta (CBS7877) [3]; product alone): 23 µg/mL | MIC (M. restricta (CBS7877) [3]; product alone, % (wt/wt)): 2.3 × 10^−3% | MFC (M. restricta (CBS7877) [4]; product alone): 23 µg/mL | MFC (M. restricta (CBS7877) [4]; product alone, % (wt/wt)): 2.3 × 10^−3% | Log Reduction (Malassezia globosa; contact time 5 minutes): 0.36 | Log Reduction (Malassezia globosa; contact time 15 minutes): 0.61 | Log Reduction (Malassezia globosa; contact time 30 minutes): 1.24 | Log Reduction (Malassezia restricta; contact time 5 minutes): 1.19 | Log Reduction (Malassezia restricta; contact time 15 minutes): 1.28 | Log Reduction (Malassezia restricta; contact time 30 minutes): 1.73

Cc1cc(C2CCCCC2)n(O)c(=O)c1 [CPO, ciclopiroxolamine]
MIC (M. globosa (IP2387.96) [1]; [5]): 29 µg/mL | MIC (M. globosa (IP2387.96) [1]; % (wt/wt)): 2.9 × 10^−3% | MFC (M. globosa (IP2387.96) [2]; [6]): 29 µg/mL | MFC (M. globosa (IP2387.96) [2]; % (wt/wt)): 2.9 × 10^−3% | MIC (M. restricta (CBS7877) [3]; [7]): 15 µg/mL | MIC (M. restricta (CBS7877) [3]; product alone, % (wt/wt)): 1.5 × 10^−3% | MFC (M. restricta (CBS7877) [4]; [8]): 15 µg/mL | MFC (M. restricta (CBS7877) [4]; product alone, % (wt/wt)): 1.5 × 10^−3% | Log Reduction (Malassezia globosa; contact time 5 minutes): 2.45 | Log Reduction (Malassezia globosa; contact time 15 minutes): 3.88 | Log Reduction (Malassezia globosa; contact time 30 minutes): >4.22 | Log Reduction (Malassezia restricta; contact time 5 minutes): 1.99 | Log Reduction (Malassezia restricta; contact time 15 minutes): 3.3 | Log Reduction (Malassezia restricta; contact time 30 minutes): >4.17

CC(=O)N1CCN(c2ccc(OCC3COC(Cn4ccnc4)(c4ccc(Cl)cc4Cl)O3)cc2)CC1 (centres unmarked) [Keto, ketoconazole]
MIC (M. globosa (IP2387.96) [1]; [5]): 0.98 µg/mL | MFC (M. globosa (IP2387.96) [2]; [6]): 1.94 µg/mL | MIC (M. restricta (CBS7877) [3]; [7]): 0.49 µg/mL | MFC (M. restricta (CBS7877) [4]; [8]): 0.49 to 0.98 µg/mL | Log Reduction (Malassezia globosa; contact time 5 minutes): 1.47 | Log Reduction (Malassezia globosa; contact time 15 minutes): 1.29 | Log Reduction (Malassezia globosa; contact time 30 minutes): 1.19 | Log Reduction (Malassezia restricta; contact time 5 minutes): 0.85 | Log Reduction (Malassezia restricta; contact time 15 minutes): 1.12 | Log Reduction (Malassezia restricta; contact time 30 minutes): 1.09
